“Also recorded” adds a separate entry of the source.
Legend:
paclitaxel-treated mice = test: mechanical paw withdrawal threshold (von Frey) in paclitaxel-induced CIPN; assay type: in vivo, mouse; details: intrathecal 10 μg, paclitaxel-induced pain
cultured DRG neurons = test: Western blot of cultured DRG neurons treated with IFN-α, IFN-β, ISRIB or poly (I:C); assay type: cell-based, mouse; details: for AKT phosphorylation / ERK and eIF4E phosphorylation / downstream JAK/STAT signaling pathways / BiP expression or signaling via PKR and downstream p-eIF2α / PKR phosphorylation / mTOR or ribosomal protein S6 phosphorylation: 300 U/mL; for BiP expression or signaling via PKR and downstream p-eIF2α: 1-6 h; for PKR phosphorylation: long exposure (24 h); for mTOR or ribosomal protein S6 phosphorylation: time course of 6 h
Method: Primary cell culture of mouse DRG neurons and Western blot. Cultured primary DRG neurons were used to test the effects of IFN-α [(300 units (U)/mL] and IFN-β [(300 units (U)/mL] application. For these experiments, mice were anesthetized with isoflurane and killed by decapitation. Then DRGs, from all spinal levels, were dissected and placed in chilled Hanks balanced-salt solution (HBSS, Invitrogen) until processed. Dorsal root ganglia were digested in 1 mg/mL collagenase A (Roche, Mannheim, Germany) for 25 minutes at 37° C. then subsequently digested in a 1:1 mixture of 1 mg/mL collagenase D and papain (Roche) for 20 minutes at 37° C. After this step, dorsal root ganglia were then triturated in a 1:1 mixture of 1 mg/mL trypsin inhibitor (Roche) and bovine serum albumin (BioPharm Laboratories, Bluffdale, Utah), then filtered through a 70 μm cell strainer (Corning, N.Y.). Cells were pelleted then resuspended in DMEM/F12 with GlutaMAX (Thermo Fisher Scientific, MA) containing 10% fetal bovine serum (FBS; Thermo Fisher Scientific), 5 ng/mL NGF, 1% penicillin and streptomycin, and […] to inhibit mitosis of non-neuronal cells and were distributed evenly in a 6-well plate coated with poly-D-lysine (Becton Dickinson, NJ). DRG neurons were maintained in a 37° C. incubator containing 5% CO2 with a media change every other day. On day 6, DRG neurons were treated with either vehicle, IFN-α or IFN-β for 1, 3, 6 and 24 h. Following treatments, cells were rinsed with chilled 1×PBS buffer, harvested in 200 μL of RIPA lysis buffer (50 mM Tris, pH 7.4, 150 mM NaCl, 1 mM EDTA, pH 8.0, and 1% Triton X-100) containing protease and phosphatase inhibitors (Sigma-Aldrich), and then sonicated for 5 seconds. To clear debris, samples were centrifuged at 14,000 rpm for 15 min at 4° C. Ten to 15 μg of protein was loaded into each well and separated by a 10% SDS-PAGE gel. Proteins were transferred to a 0.45 PVDF membrane (Millipore, MA) at 30 V overnight at 4° C. Subsequently, membranes were blocked with 5% non-fat dry milk in 1× Tris buffer solution containing Tween 20 (TTBS) for at least 2 h. Membranes were washed 3 times for 10 minutes each (3×10) in 1×TTBS, then incubated with primary antibodies overnight at 4° C. The following day, membranes were washed 3×10 each then incubated with the corresponding secondary antibodies at room temperature for 1 h. After incubation, membranes were washed with 1×TTBS 3×10 each. Signals were detected using Immobilon Western Chemiluminescent HRP Substrate (Millipore) and then visualized with Bio-Rad ChemiDoc Touch. Membranes were stripped using Restore Western Blot Stripping buffer (Thermo Fisher Scientific) and reprobed with another antibody. Analysis was performed using Image lab 6.0.1 software for Mac (Bio-Rad, Hercules, Calif.).

SNI mice [1] = test: mechanical withdrawal threshold (von Frey) after SNI; assay type: in vivo, mouse; details: WT and 4EKI, 10 μg i.t., 2 hours after injection on each CPP conditioning day
Method: (§1) Surgery. Spared nerve injury (SNI) was performed by the ligation and cutting of the tibial and peroneal branches of the left sciatic nerve trifurcation, leaving the sural branch intact as previously described (Decosterd and Woolf, 2000). Sham surgeries were performed the same way but without cutting the nerve. Mice were allowed to recover for 2 weeks following surgery.
Mechanical withdrawal threshold. Tactile sensitivity was measured by probing the left outer surface of the left hindpaw with a series of calibrated von Frey filaments. Mechanical withdrawal thresholds were assessed in all animals before (baseline) and after (2 weeks) surgery to confirm neuropathy. Withdrawal thresholds were calculated using the up-down method (Chaplan et al., 1994).

SNI mice [2] = test: conditioned place preference (CPP) after SNI; assay type: in vivo, mouse; details: 10 μg i.t.
Method: Conditioned Place Preference. A previously published CPP protocol from the Walters laboratory protocol was used (Yang et al., 2014). The CPP box consisted of one black and one white chamber connected by a striped chamber. CPP was conducted in a dark room with a single low lumens light source (Maia 69E120-WH). The middle chamber of the CPP box was brightly illuminated to discourage mice from spending time in the middle chamber. […] On day 1 of testing (preconditioning), each mouse was permitted to explore the middle and black (but not white) chambers for 30 minutes. […] On the last day of CPP, each mouse was placed in the middle chamber with unrestricted access to all chambers and video-recorded for 10 min. Data are presented as the percent change in time spent in the drug-paired chambered compared to the control (vehicle or sham for each genotype or surgery). This was calculated by dividing each animal's time spent in the white box by the control average, multiplying by 100 and then subtracting 100.
as §1

SNI mice [3] = details: neuropathic mice (Shiers et al., 2018); cited from earlier work
infralimbic cortex = details: neuropathic mice (Shiers et al., 2018); cited from earlier work
DRG neurons [4] = test: patch-clamp electrophysiology of DRG neurons exposed to IFN-α; details: 300 U/mL, ~1 h
mice [5] = test: thermal latency (Hargreaves) after type I IFN or poly (I:C); assay type: in vivo, mouse; details: i.pl. 300 U/25 μL; for thermal hypersensitivity: female mice; for paw withdrawal latency to thermal stimulation: male mice
Method: (§2) Behavior. Mice were housed on 12-hour light/dark cycles with food and water available ad libitum. Mice were randomized to groups from multiple cages to avoid using mice from experimental groups that were cohabitating. Sample size was estimated by performing a power calculation using G*Power (version 3.1.9.2). With 80% power and an expectation of d=2.2 effect size in behavioral experiments, and a set to 0.05, the sample size required was calculated as n=6 per group. The inventors therefore sought to have at least n=6 sample in all behavioral experiments. SD (set at 0.3) for the power calculation was based on previously published mechanical threshold data from the inventors' lab (Moy et al., 2017). Animals were habituated for 1 hour to clear acrylic behavioral chambers before beginning the experiment. For intraplantar injections, drugs were injected in a total volume of 25 μL through a 30-gauge needle. For intraperitoneal injections, drugs were administered in a volume of 100 μL Mechanical paw withdrawal thresholds in mice were measured using the up-down method (Chaplan et al., 1994) with calibrated von Frey filaments (Stoelting Company, WoodDale, Ill.). Thermal latency was measured using a Hargreaves device (IITC Life Science) (Hargreaves et al., 1988) with heated glass settings of 29° C., 40% active laser power, and 20 sec cutoff were used. The experimenter was blinded to the genotype of the mice and the drug condition in all experiments.

eIF4E = test: immunocytochemistry of p-eIF4E in cultured DRG neurons; assay type: cell-based, mouse; details: 300 U/mL, one-hour stimulation
Method: Immunofluorescence. For primary neuronal cultures, DRG neurons were harvested and cultured for 6 days according to the protocol described above with the exception that cells were distributed evenly on poly-D-lysine-coated 8-well chamber slide with removable wells (cat #12-565-8, Fisher Scientific). After treatments, cells were fixed in ice-cold 10% formalin in 1×PBS for 1 h and processed for immunocytochemistry (ICC). Cells were washed with 1×PBS and permeabilized in 1×PBS containing 10% heat-inactivated normal goat serum (NGS; Atlanta Biologicals, Atlanta, Ga.) and 0.02% Triton X-100 (Sigma) in 1×PBS for 30 min and then blocked in 10% NGS in 1×PBS for 2 h. […] Images were taken using an Olympus FluoView 1200 confocal microscope and analyzed with FIJI for Mac OS X. Images shown are representative of samples taken from 3 separate wells and presented as projections of Z stacks. Using ImageJ, the corrected total cell fluorescence (CTCF) was calculated to determine the intensity of the signal between experimental groups. To do so, the integrated density and the area, as well as the background noise was measured and the CTCF calculated as equal to: the integrated density −(area of selected cell×mean fluorescence of background readings). CTCF values from all experimental treatment groups were normalized to vehicle groups and expressed as normalized CTCF.

mice [6] = test: mechanical paw withdrawal threshold (von Frey) after type I IFN or poly (I:C); assay type: in vivo, mouse; details: i.pl. 300 U/25 μL; for hind paw mechanical hypersensitivity: female mice; for mechanical hypersensitivity to von Frey filament stimulation: male mice
Method: as §2

DRG neurons [7] = test: whole-cell patch clamp of cultured DRG neurons treated with IL-6 and eFT508; assay type: cell-based, mouse
Method: Phosphorylation of the 5′ cap-binding protein eIF4E by MAPK interacting kinases MNK1/2 is important for nociceptor sensitization and the development of chronic pain. IL-6 induced DRG nociceptor excitability is attenuated in mice lacking eIF4E phosphorylation, in MNK1/2^−/− mice and by the nonselective MNK1/2 inhibitor cercosporamide. […] Dorsal root ganglion (DRG) neurons were cultured from male and female ICR mice, 4-7 weeks old. […] Whole-cell patch clamp recordings were done on small diameter neurons (20-30 pF) to measure membrane excitability in response to ramp depolarization. […] These findings are consistent with a model wherein MNK-eIF4E signaling controls the translation of signaling factors that regulate T-type VGCCs in response to IL-6 treatment.

[8] = test system: cultured mouse DRG neurons; test: microelectrode array (MEA) recordings of cultured DRG neurons exposed to IL-6; assay type: cell-based; details: IL-6 100 ng/ml, tomivosertib 25 nM co-treatment
Method: Extracellular electrophysiology. Substrate-integrated microelectrode array (MEA) recordings were performed using PDL and laminin pre-treated 12-well MEA plates (Axion Biosystems, USA) and an Axion Maestro recording system. DRG sensory neurons were dissected, dissociated, and seeded as previously described (Moy et al., 2017). […] Cultures were maintained at 37° C., 5% CO2, and ≥90% humidity throughout the recordings. Briefly, 30 min baseline recordings were carried out following a 30 min acclimation period. […] Recordings were then collected continuously for 3 hours. […] Online and offline MEA data analysis was performed using Axion's AxIS, NeuralMetrics Tools, and NeuroExplorer (NeuroExplorer, USA). Physiologically relevant extracellular action potentials were defined as previously described^29.

With `COc1ccc(-c2ccc3c(N4CCOC[C@@H]4C)nc(N4CCOC[C@@H]4C)nc3n2)cc1CO` [AZD8055] the “mechanical allodynia / hypersensitivity after first injection” value (paclitaxel-treated mice) was “robust reduction in mechanical hypersensitivity; also recorded: relieves mechanical allodynia” and the “mechanical allodynia / hypersensitivity after second (subsequent) injection” value (paclitaxel-treated mice) was “the magnitude of this effect was decreased; also recorded: no significant effects were observed”.

In the case of `O=C(COc1ccc(Cl)cc1)NC1CCC(NC(=O)COc2ccc(Cl)cc2)CC1` (centres unmarked) [ISRIB], the “PKR phosphorylation after 24 h IFN-α (300 U/mL) in the presence of ISRIB” value (cultured DRG neurons; ISRIB 200 nM) is reported as “no changes” and the “components of the signaling pathways activated after IFN-α or IFN-β application” value (cultured DRG neurons; ISRIB 200 nM) is reported as “did not modulate”.

With `Clc1cccc(Cl)c1N=C1NCCN1` [clonidine] the mechanical hypersensitivity (SNI mice [1]) was “significantly attenuated mechanical hypersensitivity”, the “time spent in the drug-paired chamber vs 4EKI sham” value (SNI mice [2]; 4EKI SNI mice) was “no significant difference” and the “more time in the clonidine-paired chamber vs WT sham” value (SNI mice [2]; WT SNI female mice) was roughly 30%.

For `CN(C)C(=N)N=C(N)N` [metformin], the cognitive deficits (SNI mice [3]) is listed as “attenuated” and the “AIS shrinkage in the IL” value (infralimbic cortex) is listed as “attenuated”.

In the case of IFN-α, the “excitability, number of action potentials elicited by ramp current injections” value (DRG neurons [4]) is reported as “elevated excitability”, the “latency to the first spike following ramp current injection” value (DRG neurons [4]) is reported as “shortened the latency” and the “resting membrane potential (RMP)” value (DRG neurons [4]) is reported as -47.5±2.5 mV. The AKT phosphorylation (cultured DRG neurons) was “stimulated AKT phosphorylation”, the “ERK and eIF4E phosphorylation” value (cultured DRG neurons) was “increase” and the “downstream JAK/STAT signaling pathways” value (cultured DRG neurons) was “rapidly activated”. The “BiP expression or signaling via PKR and downstream p-eIF2α” value (cultured DRG neurons) was “did not modify”, the PKR phosphorylation (cultured DRG neurons) was “did not modify” and the “mTOR or ribosomal protein S6 phosphorylation” value (cultured DRG neurons) was “did not observe any changes”. For the same molecule, the thermal hypersensitivity (mice [5]) was “no significant changes”, the “paw withdrawal latency to thermal stimulation” value (mice [5]) was “no significant changes” and the “phosphorylation of eIF4E (ICC)” value (eIF4E) was “stimulated phosphorylation of eIF4E”. The “hind paw mechanical hypersensitivity” value (mice [6]) was “increased hind paw mechanical hypersensitivity” and the “mechanical hypersensitivity to von Frey filament stimulation” value (mice [6]) was “rapid mechanical hypersensitivity”.

With “IL-6: interleukin-6, a cytokine that evokes pain” the “amplitudes of T-type voltage-gated calcium channels (VGCCs)” value (DRG neurons [7]; IL-6, eFT508 co-treatment) was “increased”, the “latency to the first action potential in the ramp protocol” value (DRG neurons [7]; IL-6, eFT508 pretreatment) was “lower” and the “action potential firing in response to ramp depolarization” value (DRG neurons [7]; one hr IL-6, eFT508 pretreatment followed by IL-6) was “increased action potential firing”. The spontaneous firing [8] was “enhanced spontaneous firing”.

B1: IFN-β: Recombinant mouse IFN-β protein (protein, UniProt P01575 22-182, looked up)
Interferon beta: INYKQLQLQERTNIRKCQELLEQLNGKINLTYRADFKIPMEMTEKMQKSYTAFAIQEMLQNVFLVFRNNFSSTGWNETIVVRLLDELHQQTVFLKTVLEEKQEERLTWEMSSTALHLKSYYWRVQRYLKLMKYNSYAWMVVRAEIFRNFLIIRRLTRNFQN
In the case of B1, the AKT phosphorylation (cultured DRG neurons) is reported as “stimulated AKT phosphorylation”, the “ERK and eIF4E phosphorylation” value (cultured DRG neurons) is reported as “increase” and the “downstream JAK/STAT signaling pathways” value (cultured DRG neurons) is reported as “rapidly activated”. For the same molecule, the “BiP expression or signaling via PKR and downstream p-eIF2α” value (cultured DRG neurons) was “did not modify”, the PKR phosphorylation (cultured DRG neurons) was “did not modify” and the “mTOR or ribosomal protein S6 phosphorylation” value (cultured DRG neurons) was “did not observe any changes”. The thermal hypersensitivity (mice [5]) was “no significant changes”, the “paw withdrawal latency to thermal stimulation” value (mice [5]) was “no significant changes” and the “phosphorylation of eIF4E (ICC)” value (eIF4E) was “stimulated phosphorylation of eIF4E”. For the same molecule, the “hind paw mechanical hypersensitivity” value (mice [6]) was “increased hind paw mechanical hypersensitivity” and the “mechanical hypersensitivity to von Frey filament stimulation” value (mice [6]) was “rapid mechanical hypersensitivity”.

Reference: patent publication US20220226321A1, “INHIBITOR OF MNK FOR THE TREATMENT OF NEUROPATHIC PAIN” (Board of Regents, The University of Texas System, priority 2019, published 2022)
